Test results reported in paper PMC4886532, “A highly soluble, non-phototoxic, non-fluorescent blebbistatin derivative” (Scientific Reports, 2016).
≈ marks a conversion by molar mass, not a printed value. Read-outs that look alike come from different tables or passages of the source.

Assays:
zebrafish embryos = assay: Lifespan cytotoxicity assay; conditions: all blebbistatin concentrations
Procedure: Transgenic Tg(−8.0cldnb:lynEGFP)^zf106 (cldnb:EGFP)[25] zebrafish (Danio rerio) were maintained in the animal facility of Eötvös Loránd University. For the experiments investigating the skeletal and heart muscle of zebrafish, 6 dpf embryos were used. For cytotoxicity assays, 2 dpf embryos were dechorionated and placed in the indicated reagent concentrations. Embryos were kept in E3 medium (5 mM NaCl, 0.33 mM MgCl2, 0.33 mM CaCl2 and 0.17 mM KCl).
For the fast escape response experiments, 6 dpf embryos were placed in 50 μl drops of E3 medium on a plastic plate. […] 10 taps were carried out with 1 minute intervals every hour for 4 hours. The tapping force was standardized. The videos were recorded by a Ximea Camera (MQ003MG-CM) at 500 fps for 2 s. Data were analyzed by Flote software version 2.1 and maximal angular velocity parameters of C-start reflex were quantified. For the experiments investigating the effect of the inhibitors on the heart muscle of zebrafish, 6 dpf larvae were embedded in 1% agarose and kept in E3 in the presence of 20 μM concentrations of the inhibitors. […] Embryos were considered to be dead when the whole body became necrotic and the heart stopped beating. Dead embryos were removed from the experiment to prevent contamination. Images of zebrafish were captured with a Zeiss Stereo Lumar V12 microscope using a NeoLumar S 0.8x FWD 80mm objective at 50× zoom.

[1] = tested on: rabbit skeletal, porcine cardiac and scallop striated myosins, vertebrate non-muscle myosin IIs and Dictyostelium discoideum myosin II; set-up: method as in PMID 15548862; conditions: read-out: IC50 actin-activated ATPase activity; cited from earlier work
Acanthamoeba myosin II = tested on: Acanthamoeba myosin II; set-up: method as in PMID 15548862; conditions: read-out: IC50 actin activated ATPase activity; cited from earlier work
[2] = cited from earlier work
[3] = tested on: rabbit skeletal muscle myosin II; set-up: method as in PMID 15205456; conditions: cited from earlier work
HeLa cells = tested on: HeLa cells; set-up: method as in PMID 15676022; conditions: compared to 100% of the control; cited from earlier work
[4] = Photoconversion / photostability under 480 ± 10 nm irradiation; conditions: 5 μM, up to 15 minutes
Procedure: We compared para-aminoblebbistatin’s photostability to blebbistatin’s by irradiating the molecules in assay buffer at 480 ± 10 nm for different lengths of time (which is a typical GFP excitation range) and recorded the absorption spectra afterwards (Fig. 2d).
Their absorbance spectra were measured at each time point.

[5] = pH 7.3
Procedure: (§1) 50 μM of the inhibitors were dissolved in assay buffer (see Experimental Procedures) containing 0.1 or 1 vol/vol% DMSO, centrifuged at the indicated times and the concentration of the supernatants were determined at each time point (Fig. 2a,b).
(§2) The DMSO content was 1%. […] The experiments were repeated three times.

[6] = molecular target: T1, Dictyostelium discoideum myosin II motor domain (DdMD) (Dictyostelium discoideum, UniProt P08799); assay: biochemical; conditions: for IC50: 20 °C
T1 construct: Dictyostelium discoideum myosin II motor domain (DdMD)
T1 sequence (P08799 86-759 limits assumed): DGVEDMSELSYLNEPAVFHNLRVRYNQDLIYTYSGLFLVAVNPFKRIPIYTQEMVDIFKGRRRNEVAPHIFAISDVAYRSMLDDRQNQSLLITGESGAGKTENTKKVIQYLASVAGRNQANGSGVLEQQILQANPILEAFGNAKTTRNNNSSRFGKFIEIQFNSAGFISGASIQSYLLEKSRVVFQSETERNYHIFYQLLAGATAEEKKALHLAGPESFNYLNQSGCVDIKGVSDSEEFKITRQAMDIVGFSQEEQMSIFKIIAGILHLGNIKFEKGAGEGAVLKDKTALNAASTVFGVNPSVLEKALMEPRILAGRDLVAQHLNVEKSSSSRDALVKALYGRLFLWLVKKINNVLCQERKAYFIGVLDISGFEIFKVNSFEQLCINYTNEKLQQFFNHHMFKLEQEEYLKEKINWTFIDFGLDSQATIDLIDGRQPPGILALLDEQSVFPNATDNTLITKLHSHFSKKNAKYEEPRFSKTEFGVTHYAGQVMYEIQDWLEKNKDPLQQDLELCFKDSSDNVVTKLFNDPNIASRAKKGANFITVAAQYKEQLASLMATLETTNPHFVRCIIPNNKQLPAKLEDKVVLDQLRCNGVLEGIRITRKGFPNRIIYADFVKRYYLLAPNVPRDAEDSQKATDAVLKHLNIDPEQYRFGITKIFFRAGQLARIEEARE
Procedure: Myosin and actin together with the indicated concentration of the inhibitor were pre-incubated for 5 minutes at room temperature and the measurements were initiated with 1 mM ATP. Data were corrected for background ATPase activity of actin. G-actin was prepared accordingly from rabbit skeletal muscle[24] and polymerized by 2 mM MgCl2 for 1 hour at room temperature. Measurements were performed in low salt buffer containing 5 mM HEPES, 2 mM MgCl2, 0.1 mM EGTA and 2 mM DTT at pH 7.2 or assay buffer containing 20 mM HEPES, 40 mM NaCl, 4 mM MgCl2 at pH 7.3 for basal ATPase activity measurements with DdMD.

Procedure for physchem: as §1, §2

| SMILES | Time at which all embryos died (zebrafish embryos) [h] | IC50 [1] [µM] | IC50 (Acanthamoeba myosin II) [µM] | Solubility (limited solubility) ([2]; depending on the conditions of the measurements) [µM] | Concentration above which slow precipitation is observed ([2]; water) | on-rate constant kon [3] [M⁻¹ s⁻¹] | Motility of HeLa cells on 2D surfaces (HeLa cells) | Photostability: change of absorption spectrum on irradiation [4] | Time the supernatant concentration stayed constant ([5]; 298 μM) [h] | Solubility [5] [µM] | Solubility (physchem; Solubility in aqueous buffer) [µM] | Solubility (physchem; pH 7.3, Solubility) [µM] | Maximal inhibition of actin activated ATPase of DdMD [6] [%] | Maximal inhibition of basal ATPase of DdMD [6] [%] | IC50 ([6]; 15 μM actin, read-out: IC50 actin activated ATPase activity of DdMD) [µM] | IC50 ([6]; read-out: IC50 basal ATPase of DdMD) [µM] | Fold higher IC50 of AmBleb on DdMD ([6]; comparator not named (matches actin activated ratio to Bleb)) [times] |
| --- | --- | --- | --- | --- | --- | --- | --- | --- | --- | --- | --- | --- | --- | --- | --- | --- | --- |
| Cc1ccc2c(c1)C(=O)C1(O)CCN(c3ccccc3)C1=N2 (centres unmarked) [blebbistatin] | 69 | 0.5 to 5 | 83 | 7 to 20 | above 10 μM | 3400 | ~ 140% | changed markedly | – | – | – | – | – | – | – | – | – |
| Cc1ccc2c(c1)C(=O)[C@]1(O)CCN(c3ccc(N)cc3)C1=N2 [para-aminoblebbistatin] | – | – | – | – | – | – | – | – | 4 | 426 ± 1.7 (≈ 131 µg/mL) | 440 (≈ 135 µg/mL) | 298 ± 2.5 (≈ 91.6 µg/mL) | 80 | 90 | 6.7 ± 1.9 | 6.6 ± 2 | 1.7 |
